Test results from patent publication US5700469A, “HIV-1 core protein fragments” (Medical Research Council, priority 1990, dated 1997).
Where two headings read alike, the source gives them in different places. Where no end group is shown, it is not given here.

Tests used:
[1] = system: human leucocyte antigen (HLA) class I molecule; assay: CTL assay: lysis of 51-chromium labelled, HLA-matched B lymphoblastoid target cells sensitized with peptide; format: cell-based; details: for HLA restriction of the peptide (through one or more of the antigens): HLA restrictions not yet fully worked out
Protocol: Peptides in accordance with the invention can also be used for diagnostic purposes. […] Briefly, fresh peripheral blood mononuclear cells (or lymphocytes obtained from biopsy material) are prepared and added at ratios of 50:1, 25:1 and 10:1 to 10^4 51 -chromium labelled B lymphoblastoid cells matched for the relevant HLA molecules. The HLA type of patient is determined in known manner by tissue typing, and B lymphoblastoid cells obtained from a donor of known HLA type (again determined in known manner by tissue typing) and transformed with Epstein Barr using known techniques. A peptide in accordance with the invention, which interacts with the relevant HLA molecule, is also added to the cells in a concentration of 10 to 100 u molar. After 4 hours incubation the supernatant is removed and the released ^51 -chromium measured. The ^51 -chromium released is compared to that released by incubation of labelled cells in detergent, which gives a maximum value, and released by labelled cells incubated in medium alone, which gives a minimum value. If lysis (defined by ^51 -chromium released of at least two times the minimum value) is observed it means that there are cytotoxic T lymphocytes in the patients' mononuclear cells and these are likely to be indicative of infection with HIV.

[2] = system: human leucocyte antigen (HLA) class I molecule; details: disclosed in prior application EP 0346022; cited from earlier work

| Substance | HLA restriction of the peptide (through one or more of the antigens) [1] | further results |
| --- | --- | --- |
| LEEMMTACQGVGGPGY [p24-22, NH2 -leucine-glutamic acid-glutamic acid-methionine-methionine-threonine-alanine-cysteine-glutamine-glycine -valine-glycine-glycine-proline-glycine-tyrosine-COOH] | HLA-A3 or A29 or B44 or B14 |  |
| DLNTMLNTVGGHQAAC [p24-6, NH2 -aspartic acid-leucine-asparagine-threonine-methionine-leucine-asparagine-threonine- valine-glycine-glycine -histidine-glutamine-alanine-alanine-cysteine-COOH] | HLA-A3 or A29 or B44 or B14 |  |
| VHQAISPRTLNAWVKC [p24-2, NH2 -valine-histidine-glutamine-alanine-isoleucine-serine-proline-arginine-threonine-leucine-asparagine-alanine -tryptophan-valine-lysine-cysteine-COOH] | HLA-A23 or A30 or B8 |  |
| NH2 -lysine-arginine-tryptophan-isoleucine-isoleucine-leucine-glycine-leucine- asparagine-lysine-isoleucine-valine-arginine-methionine-tyrosine -cysteine-COOH [p24-14] |  | HLA class I molecule with which the peptide interacts specifically [2]: HLA B27 |
| VQNANPDCKTILKALY [p24-20, NH2 -valine-glutamine-asparagine-alanine-asparagine-proline-aspartic acid-cysteine-lysine-threonine-isoleucine-leucine-lysine-alanine-leucine-tyrosine-COOH] |  | HLA class I molecule with which the peptide interacts specifically [1]: HLA B8; recognition of the peptide by a seropositive donor ([1]; seropositive donor, HLA type as printed): recognised by a seropositive donor of the HLA type HLA-A3, 29B44, 14 |
| CVGGPGHKARVL [p24-23, NH2 -cysteine-valine-glycine-glycine-proline-glycine-histidine-lysine-alanine- arginine-valine-leucine-COOH] | LA-A1 or B7 or B8 |  |
